Columns and labels:
[1] = Non-fasting blood glucose in SHR and WKY; conditions: AM3506 1 mg/kg i.p., n=6
[2] = system: spontaneously hypertensive rat (SHR); assay: Hemodynamic measurements in anesthetized spontaneously hypertensive rats; type: in vivo
Protocol: Anandamide, the CB1 receptor antagonist AM251, and the anandamide transport inhibitors AM404 and OMDM-2 were obtained from Tocris; and the CB1 antagonist SR141716 and the CB2 antagonist SR144528 were from the National Institute on Drug Abuse drug supply program. Drugs were mixed in corn oil and sonicated for 5 minutes at 4° C. The mixture was added to 4 parts of Pluronic F68 (Sigma-Aldrich) solution (40 mg/mL) dissolved in water and sonicated to obtain a stable suspension for bolus intravenous injections.
Rats were obtained from Harlan (Indianapolis, Ind.). Male, 8- to 10-month-old SHR, age-matched male Wistar-Kyoto rats (WKY), and 8- to 10-week-old male Sprague-Dawley rats were maintained on standard rat chow and water ad libitum. Dahl salt-sensitive and salt-resistant rats (male, Rapp strain, 6 weeks old) were maintained for 4 weeks on rat chow containing either 0.12% or 8% NaCl. […] Hypertension was induced in Sprague-Dawley rats by chronic infusion of angiotensin II (60 ng/min) via an osmotic minipump (Imig et al. Hypertension 2002; 39: 690-694. Rats were used 10 to 12 days after implantation of the minipump.
For hemodynamic measurements, rats were anesthetized with pentobarbital sodium (60 mg/kg IP) and tracheotomized to facilitate breathing. Animals were placed on controlled heating pads, and core temperature, measured via a rectal probe, was maintained at 37° C. A microtip pressure-volume catheter (SPR-838; Millar Instruments) was inserted into the right carotid artery and advanced into the left ventricle (LV) under pressure control as described previously. Polyethylene cannulae (P50) were inserted into the right femoral artery and vein for measurement of mean arterial pressure (MAP) and administration of drugs, respectively. […] Heart rate, maximal LV systolic pressure, MAP, and maximal slope of systolic pressure increment (+dP/dt) were computed with a cardiac pressure-volume analysis program (PVAN2.9; Millar). Cardiac output calculated and corrected according to in vitro and in vivo volume calibrations with PVAN2.918 was normalized to body weight (cardiac index [CI]). Total peripheral resistance index (TPRI) was calculated by the equation TPRI=MAP/CI. In 3 experiments, drugs were microinjected into the fourth cerebral ventricle as described by Ramirez-Gonzalez et al. Circ Res. 1983; 53, 150-157.
Time-dependent variables were analyzed by ANOVA followed by the Dunnett post hoc test. In other cases, the Student t test was used, as appropriate. Values with P<0.05 were considered statistically significant.

anandamide transporter = assay: Inhibition of the anandamide transporter (anandamide uptake); type: cell-based; conditions: concentrations of up to 20 μM
[3] = AM3506 bolus 1 mg/kg, anesthetized SHR, FIG. 7

SMILES: O=S(=O)(F)CCCCCc1ccc(O)cc1 [AM3506]
- non-fasting blood glucose after treatment ([1]; SHR, from 97.8±5.6): 97.8 ± 2.9 mg/dL
- non-fasting blood glucose after treatment ([1]; WKY, from 114.5±5.3): 108.2 ± 4.5 mg/dL
- lowering of blood pressure ([2]; AM3506 0.3 mg/kg i.v., SHR): 90 mmHg
- dose equivalence in producing hypotension ([2]; AM3506 1 mg/kg versus URB597 10 mg/kg): equieffective with 10 mg/kg URB597
- cardiac contractility [2, 3]: significantly decreases
- cardiac output [2, 3]: reduced
- left ventricular end systolic pressure (LVESP) [2, 3]: decreases
- maximal slope of the systolic pressure increment (dP/dt) [2, 3]: decrease
- stroke volume [2, 3]: reduced
- blood pressure effect ([2]; AM3506 intravenously 1 mg/kg in 50 μl, anesthetized SHR, FIG. 1): hypotensive effect
- inhibition of the anandamide transporter (anandamide transporter): did not inhibit

Source: patent publication US8293724B2, “Therapeutic applications of fatty acid amide hydrolase inhibitors” (The United States of America, as represented by the …, priority 2007, dated 2012)
